Laboratory results published in patent US4954507A, “1-tertiary-alkyl-substituted naphthyridine carboxylic acid antibacterial agents” (priority 1988, dated 1990).
Values after ≈ are worked out from the molar mass of the structure shown. Read-outs that look alike come from different tables or passages of the source.

Tests used:
Klebsiella pneumoniae = test: MIC, K. pneum.; assay type: cell-based
Description: (§1) The compounds of this invention display antibacterial activity when tested by the microtitration dilution method reported by Heifetz et al., Antimicr. Agents & Chemoth., 6. 124 (1974). Minimum inhibitory concentrations (MICs, in μg/ml) for but a few representative compounds according to this invention were determined by the above-mentioned method.

Streptococcus faecium = test: MIC, microtitration dilution method, S. faeci.; assay type: cell-based
Description: as §1

Staphylococcus aureus = test: MIC, microtitration dilution method, S. aur.; assay type: cell-based
Description: as §1

Streptococcus faecalis = test: MIC, microtitration dilution method, S. faecal.; assay type: cell-based
Description: as §1

Enterobacter cloacae = test: MIC, microtitration dilution method, E. clo.; assay type: cell-based
Escherichia coli = test: MIC, microtitration dilution method, E. coli; assay type: cell-based
Description: as §1

Pseudomonas aeruginosa = test: MIC, microtitration dilution method, P. aer.; assay type: cell-based
Description: as §1

Klebsiella oxytoca = test: MIC, microtitration dilution method, K. oxyto.; assay type: cell-based; conditions: Table 2
Description: as §1

physchem = conditions: water
[1] = in words; from Tables 2, 3 and 4
[2] = Escherichia coli, Table 3, E. coli, read-out: MIC
[3] = Table 3, K. pneum., read-out: MIC
[4] = Enterococcus faecium, Table 3, S. faeci., read-out: MIC
[5] = Staphylococcus aureus, Table 3, S. aur., read-out: MIC
[6] = Enterococcus faecalis, Table 3, S. faecal., read-out: MIC
[7] = Enterobacter cloacae, Table 3, E. clo., read-out: MIC
[8] = Pseudomonas aeruginosa, Table 3, P. aer., read-out: MIC

SMILES | MIC (Klebsiella pneumoniae) | MIC (Streptococcus faecium; Enterococcus faecium) | MIC (Staphylococcus aureus; Staphylococcus aureus) | MIC (Streptococcus faecalis; Enterococcus faecalis) | MIC (Enterobacter cloacae; Enterobacter cloacae) | MIC (Escherichia coli; Escherichia coli) | MIC (Pseudomonas aeruginosa; Pseudomonas aeruginosa) | MIC (Escherichia coli; [2]) | also measured
CC(C)(C)n1cc(C(=O)O)c(=O)c2cc(F)c(N3CC[C@H](N)C3)nc21 [Example 46, 7-[(S)-3-amino-1-pyrrolidinyl]-1-(1,1-dimethylethyl)-6-fluoro-1,4-dihydro-4-oxo-1,8-naphthyridine-3-carboxylic acid] | 0.03 µg/mL (≈ 0.0861 µM) | 0.25 µg/mL (≈ 0.718 µM) | 0.008 µg/mL (≈ 0.023 µM) | 0.03 µg/mL (≈ 0.0861 µM) | 0.008 µg/mL (≈ 0.023 µM) | 0.015 µg/mL (≈ 0.0431 µM) | 0.06 µg/mL (≈ 0.172 µM) | – | –
O=C(O)c1cn(C2CC2)c2cc(N3CCNCC3)c(F)cc2c1=O [Cip., 1-cyclopropyl-6-fluoro-1,4-dihydro-7-(1-piperazinyl)-4-oxo-quinoline-3-carboxylic acid, reference compound] | 0.03 µg/mL (≈ 0.0905 µM) | 8 µg/mL (≈ 24.1 µM) | 0.13 µg/mL (≈ 0.392 µM) | – | – | – | 0.13 µg/mL (≈ 0.392 µM) | 0.015 µg/mL (≈ 0.0453 µM) | –
CC(C)(C)n1cc(C(=O)O)c(=O)c2cc(F)c(N3CC[C@@H](N)C3)nc21 [Example 45, 7-[(R)-3-AMINO-PYRROLIDINYL]-1-(1,1-DIMETHYLETHYL)-1,4-DIHYDRO-6-FLUORO-4-OXO-1,8-NAPHTHYRIDINE-3-CARBOXYLIC ACID, METHANESULFONATE] | 0.13 µg/mL | 1 µg/mL | 0.15 µg/mL | 0.13 µg/mL | 0.06 µg/mL | 0.06 µg/mL | 0.25 µg/mL | – | –
CC(C)(C)n1cc(C(=O)O)c(=O)c2cc(F)c(N3C[C@@H]4CC[C@H]3CN4)nc21 [Example 23, 7-(1S,4S-2,5-DIAZABICYCLO[2.2.2]OCTAN-2-YL)-1-(1,1-DIMETHYLETHYL)-1,4-DIHYDRO-6-FLUORO-4-OXO-1,8-NAPHTHYRIDINE-3-CARBOXYLIC ACID] | – | – | – | – | – | – | – | – | MIC (Streptococcus faecium; Table 2, S. faeci.): 2000 µg/mL (≈ 5340 µM); MIC (Staphylococcus aureus; Table 2, S. aur.): 30 µg/mL (≈ 80.1 µM); MIC (Streptococcus faecalis; Table 2, S. faecal.): 500 µg/mL (≈ 1340 µM); MIC (Enterobacter cloacae; Table 2, E. clo.): 60 µg/mL (≈ 160 µM); MIC (Klebsiella oxytoca): 500 µg/mL (≈ 1340 µM); MIC (Escherichia coli; Table 2, E. coli): 130 µg/mL (≈ 347 µM); MIC (Pseudomonas aeruginosa; Table 2, P. aer.): 1000 µg/mL (≈ 2670 µM)
CS(=O)(=O)O.C[C@@H]1CN(c2nc3c(cc2F)c(=O)c(C(=O)O)cn3C(C)(C)C)C[C@H]1N (relative stereo) [Example 48, 7-(trans-3-amino-4-methylpyrrolidin-1-yl)-1-(1,1-dimethylethyl)-1,4-dihydro-6-fluoro-4-oxo-1,8-naphthyridine-3-carboxylic acid (methanesulfonate)] | 0.06 µg/mL | 0.5 µg/mL | 0.008 µg/mL | 0.06 µg/mL | 0.015 µg/mL | 0.015 µg/mL | 0.25 µg/mL | – | –
CC(C)(C)n1cc(C(=O)O)c(=O)c2cc(F)c(N3C[C@H]4C[C@@H]3CN4)nc21 [Example 30] | – | – | – | – | – | – | – | 0.06 µg/mL (≈ 0.166 µM) | MIC (Klebsiella pneumoniae; [3]): 0.06 µg/mL (≈ 0.166 µM); MIC (Streptococcus faecium; [4]): 2 µg/mL (≈ 5.55 µM); MIC (Staphylococcus aureus; [5]): 0.06 µg/mL (≈ 0.166 µM); MIC (Streptococcus faecalis; [6]): 0.25 µg/mL (≈ 0.694 µM); solubility (physchem): 80 µg/mL (≈ 222 µM); combination of anti-bacterial, toxicity, and water-solubility properties [1]: highly advantageous combination of the above mentioned properties; MIC (Enterobacter cloacae; [7]): 0.03 µg/mL (≈ 0.0832 µM); MIC (Pseudomonas aeruginosa; [8]): 0.13 µg/mL (≈ 0.361 µM)
CC1CN(c2nc3c(cc2F)c(=O)c(C(=O)O)cn3C(C)(C)C)CC1N (mixture of isomers) [Example 42] | 0.06 µg/mL | 1 µg/mL | 0.03 µg/mL | 0.25 µg/mL | 0.015 µg/mL | 0.008 µg/mL | 0.25 µg/mL | – | –
CCn1cc(C(=O)O)c(=O)c2cc(F)c(N3CCNCC3)cc21 [Nor., 1-ethyl-6-fluoro-1,4-dihydro-7-(1-piperazinyl)-4-oxo-quinoline-3-carboxylic acid, reference compound] | – | – | – | – | – | – | – | 0.06 µg/mL (≈ 0.188 µM) | MIC (Klebsiella pneumoniae; [3]): 0.03 µg/mL (≈ 0.0939 µM); MIC (Streptococcus faecium; [4]): 8 µg/mL (≈ 25.1 µM); MIC (Staphylococcus aureus; [5]): 0.25 µg/mL (≈ 0.783 µM); MIC (Streptococcus faecalis; [6]): 2 µg/mL (≈ 6.26 µM); MIC (Enterobacter cloacae; [7]): 0.06 µg/mL (≈ 0.188 µM); MIC (Pseudomonas aeruginosa; [8]): 0.5 µg/mL (≈ 1.57 µM)
CC(C)(C)n1cc(C(=O)O)c(=O)c2cc(F)c(N3CCC(N)C3)nc21 (stereo not shown) [Example 36, 7-(3-AMINO-1-PYRROLIDINYL)-1-(1,1-DIMETHYLETHYL)-1,4-DIHYDRO-6-FLUORO-4-OXO-1,8-NAPHTHYRIDINE-3-CARBOXYLIC ACID] | 0.13 µg/mL (≈ 0.373 µM) | 1 µg/mL (≈ 2.87 µM) | 0.015 µg/mL (≈ 0.0431 µM) | 0.25 µg/mL (≈ 0.718 µM) | 0.06 µg/mL (≈ 0.172 µM) | 0.13 µg/mL (≈ 0.373 µM) | 0.25 µg/mL (≈ 0.718 µM) | – | –
C[C@H]1CN(c2nc3c(cc2F)c(=O)c(C(=O)O)cn3C(C)(C)C)C[C@H]1N (relative stereo) [Example 47, 7-(cis-3-amino-4-methyl-pyrrolidin-1-yl)-1-(1,1-dimethylethyl)-1,4-dihydro-6-fluoro-4-oxo-1,8-naphthyridine-3-carboxylic acid] | 0.03 µg/mL (≈ 0.0828 µM) | 1 µg/mL (≈ 2.76 µM) | 0.015 µg/mL (≈ 0.0414 µM) | 0.13 µg/mL (≈ 0.359 µM) | 0.13 µg/mL (≈ 0.359 µM) | 0.25 µg/mL (≈ 0.69 µM) | 0.5 µg/mL (≈ 1.38 µM) | – | –
